Source: patent publication US8883841B2, “Oncogenic ras-specific cytotoxic compound and methods of use thereof” (The Board of Regents of the University of Texas System, priority 2005, dated 2014)
Where two headings read alike, the source gives them in different places.

Columns and labels:
MOLT-4 = experiment: NCI in-vitro testing, MOLT-4 (Leukemia)
miapac = experiment: Cell viability, miapac pancreatic cancer cells; format: cell-based, human; settings: Homo sapiens, Pancreatic cancer cell; miapac, Pancrease; read-out: IC50 (−LogM) (converted)
Heb46 = experiment: Cell viability, Heb46 kidney cells; format: cell-based
A549 cells = experiment: Cell viability, A549 lung cancer cells; format: cell-based, human; settings: Homo sapiens; A549, Lung; read-out: IC50 (−LogM) (converted)
H2122 = experiment: Cell viability, H2122 lung cancer cells; format: cell-based, human; settings: Homo sapiens, NCI-H2122; H2122, Lung; read-out: IC50 (−LogM) (converted)
K-562 = experiment: NCI in-vitro testing, K-562 (Leukemia)
CT116P53 = experiment: Cell viability, CT116P53 colon cancer cells; format: cell-based, human; settings: Homo sapiens; CT116P53, Colon; read-out: IC50 (−LogM) (converted)
H2009 = experiment: Cell viability, H2009 lung cancer cells; format: cell-based, human; settings: Homo sapiens, NCI-H2009; H2009, Lung; read-out: IC50 (−LogM) (converted)
AsPC-1 = experiment: Cell viability, AsPC-1 pancreatic cancer cells; format: cell-based, human; settings: Homo sapiens; ASPC1, Pancrease; read-out: IC50 (−LogM) (converted)
H1933 = experiment: Cell viability, H1933 lung cancer cells; format: cell-based, human; settings: Homo sapiens; H1933, Lung; read-out: IC50 (−LogM) (converted)
H2087 = experiment: Cell viability, H2087 lung cancer cells; format: cell-based, human; settings: Homo sapiens, NCI-H2087; H2087, Lung; read-out: IC50 (−LogM) (converted)
A498 = experiment: NCI in-vitro testing, A498 (Renal Cancer)
SF-295 = experiment: NCI in-vitro testing, SF-295 (CNS Cancer)
H1299 cells = experiment: Cell viability, H1299 lung cancer cells; format: cell-based, human; settings: Homo sapiens, NCI-H1299; h1299, Lung; read-out: IC50 (−LogM) (converted)
H1395 = experiment: Cell viability, H1395 lung cancer cells; format: cell-based, human; settings: Homo sapiens, NCI-H1395; H1395, Lung; read-out: IC50 (−LogM) (converted)
SK-OV-3 = experiment: NCI in-vitro testing, SK-OV-3 (Ovarian Cancer)
LOX IMVI = experiment: NCI in-vitro testing, LOX IMVI (Melanoma)
Hct116 = experiment: Cell viability, Hct116 colon cancer cells; format: cell-based, human; settings: Homo sapiens, HCT-116; Hct116, Colon; read-out: IC50 (−LogM) (converted)
DLD1 = experiment: Cell viability, DLD1 colon cancer cells; format: cell-based, human; settings: Homo sapiens, DLD-1; DLD1, Colon; read-out: IC50 (−LogM) (converted)
HKE3 = experiment: Cell viability, HKE3 colon cancer cells; format: cell-based, human; settings: Homo sapiens, HKE3, Colon, read-out: IC50 (−LogM) (converted)
Ovcar3 = experiment: Cell viability, Ovcar3 ovary cancer cells; format: cell-based; settings: Homo sapiens, OVCAR-3
TK-10 = experiment: NCI in-vitro testing, TK-10 (Renal Cancer)
Capanc-1 = experiment: Cell viability, Capanc-1 pancreatic cancer cells; format: cell-based, human; settings: Homo sapiens, Pancreatic cancer cell; capanc1, Pancrease; read-out: IC50 (−LogM) (converted)
OVCAR-3 = experiment: NCI in-vitro testing, OVCAR-3 (Ovarian Cancer)
A549CK8 = experiment: Cell viability, A549CK8 lung cancer cells; format: cell-based, human; settings: Homo sapiens; A549CK8, Lung; read-out: IC50 (−LogM) (converted)
H226B cells = experiment: Cell viability, H226B lung cancer cells; format: cell-based, human; settings: Homo sapiens, H226B, Lung, read-out: IC50 (−LogM) (converted)
Heb44 = experiment: Cell viability, Heb44 kidney cells; format: cell-based

OCc1cn(Cc2ccc(Cl)cc2)c2ccccc12 [Oncrasin K060, 1H-Indole-3-methanol, 1-[(4-chlorophenyl)methyl]-]
GI50 (MOLT-4; Homo sapiens, MOLT-4): 17700 nM | CC50 (MOLT-4; Homo sapiens, MOLT-4, read-out: LC50): 82800 nM | GI50 (MOLT-4; Homo sapiens, MOLT-4, read-out: Log10 GI50 (converted)): 17800 nM | TGI (MOLT-4; MOLT-4): 3.82E−5 Molar | Percent Growth (MOLT-4; MOLT-4, Log10 Concentration −4.0 Molar): −62% | Percent Growth (MOLT-4; MOLT-4, Log10 Concentration −5.0 Molar): 87% | Percent Growth (MOLT-4; MOLT-4, Log10 Concentration −6.0 Molar): 109% | Percent Growth (MOLT-4; MOLT-4, Log10 Concentration −7.0 Molar): 102% | Percent Growth (MOLT-4; MOLT-4, Log10 Concentration −8.0 Molar): 114% | IC50 (miapac): < 31600 nM | IC50 (Heb46): 200 nM | IC50 (A549 cells): 2000 nM | IC50 (H2122): 1000 nM | GI50 (K-562; Homo sapiens, K562): 19200 nM | CC50 (K-562; Homo sapiens, K562, read-out: LC50): 6460 nM | GI50 (K-562; Homo sapiens, K562, read-out: Log10 GI50 (converted)): 1910 nM | TGI (K-562; K-562): 1.26E−6 Molar | Percent Growth (K-562; K-562, Log10 Concentration −4.0 Molar): −71% | Percent Growth (K-562; K-562, Log10 Concentration −5.0 Molar): 8% | Percent Growth (K-562; K-562, Log10 Concentration −6.0 Molar): 67% | Percent Growth (K-562; K-562, Log10 Concentration −7.0 Molar): 100% | Percent Growth (K-562; K-562, Log10 Concentration −8.0 Molar): 114% | IC50 (CT116P53): < 31600 nM | IC50 (H2009): 15800 nM | IC50 (AsPC-1): 2000 nM | IC50 (H1933): 10000 nM | IC50 (H2087): 25100 nM | TGI (A498; A498): 3.33E−8 Molar | Percent Growth (A498; A498, Log10 Concentration −4.0 Molar): −94% | Percent Growth (A498; A498, Log10 Concentration −5.0 Molar): −95% | Percent Growth (A498; A498, Log10 Concentration −6.0 Molar): −87% | Percent Growth (A498; A498, Log10 Concentration −7.0 Molar): −56% | Percent Growth (A498; A498, Log10 Concentration −8.0 Molar): 61% | GI50 (A498; Homo sapiens, A498): 12.4 nM | CC50 (A498; Homo sapiens, A498, read-out: LC50): 89 nM | GI50 (A498; Homo sapiens, A498, read-out: Log10 GI50 (converted)): 12.3 nM | GI50 (SF-295; Homo sapiens, SF-295): 14300 nM | CC50 (SF-295; Homo sapiens, SF-295, read-out: LC50): > 100000 nM | GI50 (SF-295; Homo sapiens, SF-295, read-out: Log10 GI50 (converted)): 1410 nM | TGI (SF-295; SF-295): 3.52E−5 Molar | Percent Growth (SF-295; SF-295, Log10 Concentration −4.0 Molar): −15% | Percent Growth (SF-295; SF-295, Log10 Concentration −5.0 Molar): 18% | Percent Growth (SF-295; SF-295, Log10 Concentration −6.0 Molar): 56% | Percent Growth (SF-295; SF-295, Log10 Concentration −7.0 Molar): 80% | Percent Growth (SF-295; SF-295, Log10 Concentration −8.0 Molar): 104% | IC50 (H1299 cells): 3160 nM | IC50 (H1395): 20000 nM | GI50 (SK-OV-3; Homo sapiens, SK-OV-3): 1820 nM | CC50 (SK-OV-3; Homo sapiens, SK-OV-3, read-out: LC50): > 100000 nM | GI50 (SK-OV-3; Homo sapiens, SK-OV-3, read-out: Log10 GI50 (converted)): 1820 nM | TGI (SK-OV-3; SK-OV-3): 2.96E−5 Molar | Percent Growth (SK-OV-3; SK-OV-3, Log10 Concentration −4.0 Molar): −16% | Percent Growth (SK-OV-3; SK-OV-3, Log10 Concentration −5.0 Molar): 16% | Percent Growth (SK-OV-3; SK-OV-3, Log10 Concentration −6.0 Molar): 52% | Percent Growth (SK-OV-3; SK-OV-3, Log10 Concentration −7.0 Molar): 85% | Percent Growth (SK-OV-3; SK-OV-3, Log10 Concentration −8.0 Molar): 96% | TGI (LOX IMVI): 1.58E−6 Molar | GI50 (LOX IMVI; Homo sapiens): 4480 nM | CC50 (LOX IMVI; Homo sapiens, read-out: LC50): 47200 nM | GI50 (LOX IMVI; Homo sapiens, read-out: Log10 GI50 (converted)): 4470 nM | Percent Growth (LOX IMVI; Log10 Concentration −4.0 Molar): −86% | Percent Growth (LOX IMVI; Log10 Concentration −5.0 Molar): 26% | Percent Growth (LOX IMVI; Log10 Concentration −6.0 Molar): 96% | Percent Growth (LOX IMVI; Log10 Concentration −7.0 Molar): 96% | Percent Growth (LOX IMVI; Log10 Concentration −8.0 Molar): 102% | IC50 (Hct116): 100 nM | IC50 (DLD1): < 31600 nM | IC50 (HKE3; first HKE3 line): 25.1 nM | IC50 (HKE3; second HKE3 line): < 3.16 nM | IC50 (Ovcar3): 100 nM | GI50 (TK-10; Homo sapiens, TK-10): 15.3 nM | CC50 (TK-10; Homo sapiens, TK-10, read-out: LC50): > 100000 nM | GI50 (TK-10; Homo sapiens, TK-10, read-out: Log10 GI50 (converted)): 15.1 nM | TGI (TK-10; TK-10): 8.94E−8 Molar | Percent Growth (TK-10; TK-10, Log10 Concentration −4.0 Molar): −18% | Percent Growth (TK-10; TK-10, Log10 Concentration −5.0 Molar): −8% | Percent Growth (TK-10; TK-10, Log10 Concentration −6.0 Molar): −10% | Percent Growth (TK-10; TK-10, Log10 Concentration −7.0 Molar): −3% | Percent Growth (TK-10; TK-10, Log10 Concentration −8.0 Molar): 82% | IC50 (Capanc-1): 10000 nM | GI50 (OVCAR-3; Homo sapiens, OVCAR-3): 569 nM | CC50 (OVCAR-3; Homo sapiens, OVCAR-3, read-out: LC50): 69100 nM | GI50 (OVCAR-3; Homo sapiens, OVCAR-3, read-out: Log10 GI50 (converted)): 575 nM | TGI (OVCAR-3; OVCAR-3): 1.03E−5 Molar | Percent Growth (OVCAR-3; OVCAR-3, Log10 Concentration −4.0 Molar): −60% | Percent Growth (OVCAR-3; OVCAR-3, Log10 Concentration −5.0 Molar): 1% | Percent Growth (OVCAR-3; OVCAR-3, Log10 Concentration −6.0 Molar): 42% | Percent Growth (OVCAR-3; OVCAR-3, Log10 Concentration −7.0 Molar): 77% | Percent Growth (OVCAR-3; OVCAR-3, Log10 Concentration −8.0 Molar): 95% | IC50 (A549CK8): 1000 nM | IC50 (H226B cells; first H226B line): 2.51 nM | IC50 (H226B cells; second H226B line): 3.16 nM | IC50 (Heb44): 10 nM
